In patent US20030004165A1, “Polyazanaphthalene compounds and pharmaceutical use thereof” (AJINOMOTO CO. INC, priority 1999, published 2003):

Columns and labels:
[1] = test system: TNF α production by Balb/c mouse peritoneal cells; test: Inhibition of LPS-induced TNF α production from mouse peritoneal cells; format: cell-based; conditions: LPS 10 μg/ml stimulation, 16 to 18 hours, TNF α by sandwich ELISA
Procedure: Evaluation of Inhibiting Production of Tumor Necrosis Factors (TNF)
RPMI medium was injected into a peritoneal cavity of Balb/c mouse (Charles River Japan, Inc.) and the peritoneal cells were collected. The peritoneal cells were seeded on a 96-well plate in a concentration of 1×10^4 cells/well. 30 minutes after the addition of the subject pharmaceutical compounds in a proper concentration, LPS (sigma, L-5886) was added to each well so as to obtain the final concentration of 10 μg/ml. After culturing overnight (16 to 18 hours) again, a culture fluid was collected and the amount of TNF α in the culture fluid was determined. Mouse TNF α was determined by the means of a sandwitch ELISA and anti-mouse TNF a hamster monoclonal antibody (Genzyme 1221-00) was used as the first antibody, anti-mouse TNF α rabbit polyclonal antibody (Genzyme, IP-400) as the second antibody, and alkaliphosphatase conjugate anti-rabbit IgG polyclonal goat antibody as the third antibody. Then, optical absorbance of alkaliphosphatase substrate (p-nitrophosphate) was determined and converted into the production amount. When no stimulation was seen, the production amount was defined as 0% and when only […] stimulation was seen, the amount was defined as 100%.

[2] = test system: MMP-3 (stromelysin-1) production by human joint normal synovial interstitial cells; test: Inhibition of IL-1β-induced MMP-3 production from synovial cells; format: cell-based; conditions: IL-1β 0.5 ng/ml stimulation, 16 to 18 hours, MMP-3 in culture fluid
Procedure: Evaluation of Inhibiting Production of Matrix Metalloprotease (MMP) Collected From Synovial Cells
The human joint normal synovial interstitial cells (cell System-SS cells, Dainippon Pharmaceutical Co., Ltd.) were seeded on a 96-well plate in a concentration of 1×10^4 cells/well and cultured overnight. 30 minutes after the addition of the subject pharmaceutical compounds in a proper concentration, IL-1β was added to each well so as to obtain the final concentration of 0.5 ng/ml. After culturing overnight (16 to 18 hours) again, a culture fluid was collected and the amount of MMP-3 (stromelysin-1) in the culture fluid was determined. MMP-3 was determined with a test kit for determining stromelysin-1 (SL) in serum (Fuji Chemical Industries Ltd.), in accordance with an instruction book attached to the kit. When no stimulation was seen, the production amount was defined as 0% and when only […] stimulation was seen, the amount was defined as 100%.

Compound | TNF Inhibition Activity (IC50) [1] | MMP Inhibition Activity (IC50) [2]
COc1ccc(-c2cnc3ccncc3c2)cc1OC1CCCC1 [Example 26, 3-(3-Cyclopentyloxy-4-Methoxyphenyl)-1,6-Naphthylidine] | 0.01 µg/mL | –
COc1ccc(-c2cnc3cc(N)ncc3c2)cc1OC.Cl [Example 18, 7-Amino-3-(3,4-Dimethoxyphenyl)-1,6-Naphthylidine Hydrochloride] | 0.6 µg/mL | 0.31 µg/mL
COc1ccc(-c2cnc3ccnc(N)c3c2)cc1OC [Example 20, 5-Amino-3-(3,4-Dimethoxyphenyl)-1,6-Naphthylidine] | 0.3 µg/mL | 0.16 µg/mL
COc1ccc(-c2ccc3cnccc3n2)cc1OC [Example 24, 2-(3,4-Dimethoxyphenyl)-1,6-Naphthylidine] | 0.6 µg/mL | 1.25 µg/mL
COc1ccc(-c2cnc3ccncc3c2)cc1OC [Example 1, 3-(3,4-Dimethoxyphenyl)-1,6-Naphtylidine] | 0.5 µg/mL | 1.25 µg/mL
COc1ccc(-c2cnc3ccnc(Cl)c3c2)cc1OC [Example 19, 5-Chloro-3-(3,4-Dimethoxyphenyl)-1,6-Naphthylidine] | 1 µg/mL | –
COc1ccc(-c2cnc3ncccc3c2)cc1OC [Example 23, 3-(3,4-Dimethoxyphenyl)-1,8-Naphthylidine] | 0.1 µg/mL | –
COc1ccc(-c2cnc3cnccc3c2)cc1OC [Example 22, 3-(3,4-Dimethoxyphenyl)-1,7-Naphthylidine] | 0.02 µg/mL | 1.25 µg/mL
